Measured values published in US20220000157A1, “MOUTH-COATING FEEL ENHANCER” (AJINOMOTO CO., INC., priority 2019, published 2022).

System: panel of 3 experts
Assay: Sensory evaluation of strength of mouth-coating feel of mayonnaise, single compounds in ethanol (Experimental Example 14)
Format: in vivo
Details: for mouth-coating feel (in words): Table 20
Excerpt: as a Positive Control, General Commercially Available mayonnaise (manufactured by Ajinomoto Co., Inc., trade name “Pure Select (registered trade mark) mayonnaise”, oil and fat content: 73%) added with ethanol (manufactured by Japan Alcohol Corporation) (0.001 wt %) was used.
As a negative control, commercially available mayonnaise (manufactured by Ajinomoto Co., Inc., trade name “Pure Select (registered trade mark) KOKUUMA (registered trade mark) 65% Calorie Cut”, oil and fat content: 23%) with a smaller oil and fat content as compared with positive control mayonnaise and added with ethanol (manufactured by Japan Alcohol Corporation) (0.001 wt %) was used.
Given amounts of β-caryophyllene, β-caryophyllene oxide, clovanediol, (1R,3Z,5R,9S)-4,11,11-trimethyl-8-methylenebicyclo[7.2.0]undec-3-en-5-ol, (1R,4R,5R,9S)-4,11,11-trimethyl-8-methylenebicyclo[7.2.0]undecane-4,5-diol, clovanediol-3-monoacetate, clovanediol diacetate, clovanediol-3-monoisovalerate, α-pinene, α-pinene oxide, limonene, limonene oxide, α-terpineol (clovanediol, (1R,3Z,5R,9S)-4,11,11-trimethyl-8-methylenebicyclo[7.2.0]undec-3-en-5-ol, (1R,4R,5R,9S)-4,11,11-trimethyl-8-methylenebicyclo[7.2.0]undecane-4,5-diol, clovanediol-3-monoacetate, clovanediol diacetate and clovanediol-3-monoisovalerate used were those obtained in the above-mentioned Synthetic Examples and others used were manufactured by Sigma-Aldrich) were dissolved in ethanol (manufactured by Japan Alcohol Corporation), the ethanol (0.001 wt %) was added to the commercially available mayonnaise used for preparation of the above-mentioned negative control, and the obtained mayonnaise was used as an evaluation sample. The amounts of β-caryophyllene, β-caryophyllene oxide, clovanediol, (1R,3Z,5R,9S)-4,11,11-trimethyl-8-methylenebicyclo[7.2.0]undec-3-en-5-ol, (1R,4R,5R,9S)-4,11,11-trimethyl-8-methylenebicyclo[7.2.0]undecane-4,5-diol, clovanediol-3-monoacetate, clovanediol diacetate, clovanediol-3-monoisovalerate, α-pinene, α-pinene oxide, limonene, limonene oxide, α-terpineol dissolved in ethanol were each adjusted to fall within the range of 0.01-1 ppm with respect to mayonnaise, as shown in the following Table 20.
For the evaluation of the strength of the mouth-coating feel, a panel of 3 experts ate each mayonnaise of positive control, negative control and evaluation sample, and graded the evaluation samples in 0.1 point increments in the range of 0.0 to 5.0 points, with the positive control being 5.0 points and the negative control being 0.0 point.

[1] = concentration 1 ppm with respect to mayonnaise
[2] = concentration 0.01 ppm with respect to mayonnaise
[3] = concentration 0.1 ppm with respect to mayonnaise

Row | SMILES | mouth-coating feel (in words) | strength of mouth-coating feel [1] [points] | strength of mouth-coating feel [2] [points] | strength of mouth-coating feel [3] [points]
1 | C=C(C)C1CCC2(C)OC2C1 (stereo not drawn) [limonene oxide] | enhanced | 2.8 | – | –
2 | C=C1CC[C@@H](O)/C(C)=C\C[C@@H]2[C@@H]1CC2(C)C [(1R,3Z,5R,9S)-4,11,11-trimethyl-8-methylenebicyclo[7.2.0]undec-3-en-5-ol] | enhanced | 3.0 | – | –
3 | CC(=O)O[C@H]1CC(C)(C)[C@@H]2CC[C@]3(C)C[C@]12CC[C@H]3O [clovanediol-3-monoacetate] | enhanced | 3.0 | – | –
4 | C=C1CC[C@H]2O[C@]2(C)CC[C@@H]2[C@@H]1CC2(C)C [β-caryophyllene oxide] | enhanced | 3.6 | 1.5 | 2.6
5 | C=C(C)[C@H]1CC=C(C)CC1 [limonene, reference compound] | – | 0.0 | – | –
6 | CC(C)CC(=O)O[C@H]1CC(C)(C)[C@@H]2CC[C@]3(C)C[C@]12CC[C@H]3O [clovanediol-3-monoisovalerate] | enhanced | 3.2 | – | –
7 | C=C1CC/C=C(\C)CC[C@@H]2[C@@H]1CC2(C)C [β-caryophyllene, reference compound] | – | 0.1 | 0.0 | 0.0
8 | CC1=CCC(C(C)(C)O)CC1 (stereo not drawn) [α-terpineol] | enhanced | 2.0 | – | –
9 | CC1(C)C2CC3OC3(C)C1C2 (stereo not drawn) [α-pinene oxide] | enhanced | 3.3 | – | –
10 | CC1=CCC2CC1C2(C)C (stereo not drawn) [α-pinene, reference compound] | – | 0.6 | – | –
11 | C=C1CC[C@@H](O)[C@](C)(O)CC[C@@H]2[C@@H]1CC2(C)C [(1R,4R,5R,9S)-4,11,11-trimethyl-8-methylenebicyclo[7.2.0]undecane-4,5-diol] | enhanced | 3.3 | – | –
12 | CC(=O)O[C@H]1CC(C)(C)[C@@H]2CC[C@]3(C)C[C@]12CC[C@H]3OC(C)=O [clovanediol diacetate] | enhanced | 3.2 | – | –
13 | CC1(C)C[C@H](O)[C@]23CC[C@@H](O)[C@](C)(CC[C@@H]12)C3 [clovanediol] | enhanced | 3.1 | – | –
